{"source": "patent US8293511B2", "about": "“Production of β-Lactam antibiotics” (DSM IP Assets B.V., priority 2006, dated 2012)", "key": {"[1]": {"tested_on": "Escherichia coli ESS (DS10031)", "assay": "Bioassay development: growth in 2xTY medium with serial dilutions of antibiotic, OD600", "type": "cell-based", "conditions": "16 hours", "method": "(§1) The bacterial strains Escherichia coli ESS, Bacillus subtilis ATCC6633 and Micrococcus luteus ATCC9341 were grown overnight in 2×TY-medium at 30° C. and 280 rpm. After 16 hours of growth, the OD^600 was measured. Typically, the OD^600 amounts 5.0, ranging from 2.0 to 8.0.\n(§2) A solution of amoxicillin was made at a concentration of 7 mg/ml. Subsequently, serial dilutions were made ranging from 1 mg/l down to 0.001 mg/l. MilliQ water served as a negative control.\n(§3) In a 96 wells microplate, 25 μl of the serial dilutions were pipetted in the wells. Each microplate was prepared in duplicate. The overnight bacterial cultures were diluted in fresh 2×TY-medium to a final OD^600 of 0.01. To each well, 150 μl of the diluted bacterial cultures was added. The microplates were covered with a lid, and incubated overnight at 25° C. and the duplicate microplate at 37° C.\n(§4) After 16 hours of incubation, the OD^600 was read in a microplate reader. From the results, the concentration of amoxicillin still allowing uninhibited growth of the test microorganisms can be read.\n(§5) A solution of ampicillin was made at a concentration of 7 mg/ml. Subsequently, serial dilutions were made ranging from 1 mg/l down to 0.001 mg/l. MilliQ water served as a negative control.\n(§6) In a 96 wells microplate, 25 μl of the serial dilutions were pipetted in the wells. Each microplate was prepared in duplicate. The overnight bacterial cultures were diluted in fresh 2×TY-medium to a final OD^600 of 0.01. To each well, 150 μl of the diluted bacterial cultures was added. The microplates were covered with a gas permeable adhesive seal, and incubated overnight at 25° C. and the duplicate microplate at 37° C.\n(§7) After 16 hours of incubation, the OD^600 was read in a microplate reader. From the results, the concentration of ampicillin still allowing uninhibited growth of the test microorganisms can be read."}, "[2]": {"tested_on": "Micrococcus luteus ATCC9341", "assay": "Bioassay development: growth in 2xTY medium with serial dilutions of antibiotic, OD600", "type": "cell-based", "conditions": "16 hours", "method": "as §1, §2, §3, §4, §5, §6, §7"}, "[3]": {"tested_on": "Bacillus subtilis ATCC6633", "assay": "Bioassay development: growth in 2xTY medium with serial dilutions of antibiotic, OD600", "type": "cell-based", "conditions": "16 hours", "method": "as §1, §2, §3, §4, §5, §6, §7"}, "IPNS": {"tested_on": "IPNS", "conditions": "Huffman et al. J. Med. Chem. 1992; cited from earlier work"}}}
{"compound": "CC1(C)S[C@@H]2[C@H](NC(=O)[C@H](N)c3ccc(O)cc3)C(=O)N2[C@H]1C(=O)O", "note": "[Amoxicillin, amoxicillin]", "values": [{"measurement": "Concentration of amoxicillin still allowing uninhibited growth in 2xTY medium", "setting": "[1]; at 25° C.", "result": 0.1, "unit": "mg/L"}, {"measurement": "Concentration of amoxicillin still allowing uninhibited growth in 2xTY medium", "setting": "[1]; at 37° C.", "result": 0.1, "unit": "mg/L"}, {"measurement": "Concentration of amoxicillin still allowing uninhibited growth in 2xTY medium", "setting": "[2]; at 25° C.", "result": 0.001, "unit": "mg/L"}, {"measurement": "Concentration of amoxicillin still allowing uninhibited growth in 2xTY medium", "setting": "[2]; at 37° C.", "result": 0.002, "unit": "mg/L"}, {"measurement": "Concentration of amoxicillin still allowing uninhibited growth in 2xTY medium", "setting": "[3]; at 25° C.", "result": 1.0, "unit": "mg/L"}, {"measurement": "Concentration of amoxicillin still allowing uninhibited growth in 2xTY medium", "setting": "[3]; at 37° C.", "result": 5, "unit": "mg/L"}]}
{"compound": "CC1(C)S[C@@H]2[C@H](NC(=O)[C@H](N)c3ccccc3)C(=O)N2[C@H]1C(=O)O", "note": "[Ampicillin, ampicillin]", "values": [{"measurement": "Concentration of ampicillin still allowing uninhibited growth in 2xTY medium", "setting": "[1]; at 25° C.", "result": 0.05, "unit": "mg/L"}, {"measurement": "Concentration of ampicillin still allowing uninhibited growth in 2xTY medium", "setting": "[1]; at 37° C.", "result": 0.05, "unit": "mg/L"}, {"measurement": "Concentration of ampicillin still allowing uninhibited growth in 2xTY medium", "setting": "[2]; at 25° C.", "result": 0.001, "unit": "mg/L"}, {"measurement": "Concentration of ampicillin still allowing uninhibited growth in 2xTY medium", "setting": "[2]; at 37° C.", "result": 0.002, "unit": "mg/L"}, {"measurement": "Concentration of ampicillin still allowing uninhibited growth in 2xTY medium", "setting": "[3]; at 25° C.", "result": 0.5, "unit": "mg/L"}, {"measurement": "Concentration of ampicillin still allowing uninhibited growth in 2xTY medium", "setting": "[3]; at 37° C.", "result": 2.5, "unit": "mg/L"}]}
{"compound": "CC(C)[C@@H](NC(=O)[C@H](CS)NC(=O)Cc1ccc(O)cc1)C(=O)O", "note": "[p-hydroxyphenylacetyl-L-cysteinyl-D-valine]", "values": [{"measurement": "Antibiotic activity after treatment of the substrate with IPNS", "setting": "IPNS", "result": "not to result in antibiotic activity"}]}
{"compound": "m-COOH-DL-phenylglycyl-L-cysteinyl-D-valine", "values": [{"measurement": "Antibiotic activity after treatment of the substrate with IPNS", "setting": "IPNS", "result": "not to result in antibiotic activity"}]}
